{"source": "patent US20230360801A1", "about": "“METHODS AND SYSTEMS OF IDENTIFYING INDIVIDUALS FOR PERIOPERATIVE NEUROCOGNITIVE DISORDER AND/OR POST-VIRAL COGNITIVE IMPAIRMENT” (Cambridge Cognition Limited, priority 2021, published 2023)", "origin": "cited, not measured here", "data": [{"smiles": "CC(C)(Oc1ccc(C(=O)c2ccc(Cl)cc2)cc1)C(=O)O", "note": "[fenofibric acid]", "values": [{"measurement": "logP", "value": 3.9}]}]}
